From ChEMBL document CHEMBL3872275, “Synthesis and antiproliferative activity of 2-chlorophenyl carboxamide thienopyridines” (Bioorg Med Chem Lett, 2017) come the findings set out here.

A short description of assay [1]: Antiproliferative activity against human MDA-MB-231 cells assessed as cell growth at 1 uM after 3 days by thymidine incorporation assay relative to control. Format: functional. The following applies: MDA-MB-231, 72 h, read-out: Activity.
Assay [2] can be described thus: Antiproliferative activity against human HCT116 cells assessed as cell growth at 1 uM after 3 days by thymidine incorporation assay relative to control. Format: functional. The note with it: HCT-116, 72 h, read-out: Activity. (Incorporation of labelled thymidine or its analogues reports DNA synthesis.)
Assay [3] is described as follows: Antiproliferative activity against human MDA-MB-468 cells assessed as cell growth at 1 uM after 3 days by thymidine incorporation assay relative to control. The following applies: MDA-MB-468, 72 h, read-out: Activity. Format: functional.
The nature of assay [4]: Antiproliferative activity against human K562 cells after 3 days by thymidine incorporation assay. Format: functional, cell-based. The following applies: K562, 72 h.
Assay [5] is described as follows: Growth inhibition of human MDA-MB-468 cells at 10 uM after 48 hrs by SRB assay relative to control. Format: functional. The note with it: MDA-MB-468, 48 h, values are per cent of control.
Assay [6] in a line: Antiproliferative activity against human MDA-MB-468 cells after 3 days by thymidine incorporation assay. Format: functional, cell-based. The following applies: MDA-MB-468, 72 h.
Assay [7] in a line: Growth inhibition of human HCT116 cells at 10 uM after 48 hrs by SRB assay relative to control. Format: functional. The note with it: HCT-116, 48 h, values are per cent of control.
The nature of assay [8]: Growth inhibition of human MDA-MB-231 cells at 10 uM after 48 hrs by SRB assay relative to control. The note with it: MDA-MB-231, 48 h, read-out: GI. Format: functional. (In SRB staining, fixed cells bind dye roughly in proportion to their protein.)
A short description of assay [9]: Antiproliferative activity against human HCT116 cells after 3 days by thymidine incorporation assay. Format: functional, cell-based. The note with it: HCT-116, 72 h.
Assay [10] is described as follows: Antiproliferative activity against human MDA-MB-231 cells after 3 days by thymidine incorporation assay. Format: functional, cell-based. The following applies: MDA-MB-231, 72 h.

Molecules are shown by their SMILES.

With `CC(=O)OC1CCCc2nc3sc4c(=O)n(-c5ccccc5Cl)c(C)nc4c3cc21` (stereo not drawn), the growth at 1 µM in assay [1] stood at 82%; in assay [2], 92%; in assay [3], 64%.

For the compound `CC(=O)c1cc2c(nc1C)sc1c(=O)n(-c3ccccc3Cl)nnc12`, the figures for the growth at 1 µM in assay [1], in assay [2] and in assay [3] were 103%, 98% and 96%, respectively.

`O=c1c2sc3nc4c(cc3c2nnn1-c1ccccc1Cl)CCCCCC4`: the values for the growth at 1 µM in assay [1], in [2] and in assay [3] were 92%, 90% and 85%, respectively.

For the compound `Nc1c(C(=O)Nc2ccccc2Cl)sc2nc3c(cc12)C(O)CCC3` (stereo not drawn), the IC50 (as a rule, the midpoint of a concentration-inhibition curve) was determined as 431 nM in assay [4], 546 nM in assay [6], 616 nM in assay [9] and 675 nM in [10]. For the same compound, the growth at 1 µM in assay [1] is 30%; in assay [2] it was 11%; in [3], 14%. The growth, % of control at 10 µM in assay [5] was 26%; in assay [7], 30%. The inhibition of growth at 10 µM in assay [8] worked out at 58%.

Take `Nc1c(C(=O)Nc2ccccc2Cl)sc2nc3c(cc12)CCCCCCCC3`: the growth at 1 µM in assay [1] turned out to be 104%; in assay [2], 91%; in [3], 78%.

`Nc1c(C(=O)Nc2ccccc2Cl)sc2nc3c(cc12)CCCCC3`: the growth at 1 µM in [1] came out at 101%; in [2], 94%; in assay [3], 81%.

For `O=c1c2sc3nc4c(cc3c2nnn1-c1ccccc1Cl)CCCCCCCC4`, the results for the growth at 1 µM in [1], in [2] and in assay [3] were 91%, 97% and 82%, respectively.

For `CC(=O)OC1CCCc2nc3sc(C(=O)Nc4ccccc4Cl)c(N)c3cc21` (stereo not drawn), the IC50 in [4] was 192 nM; in [6], 181 nM; in assay [9] it was 184 nM; in assay [10], 201 nM. The growth at 1 µM in [1] was 10%; in [2], 3%; in [3] it was 7%.

For the compound `O=c1c2sc3nc4c(cc3c2nnn1-c1ccccc1Cl)CCCCC4`, the growth at 1 µM in assay [1] came to 105%; in [2], 99%; in assay [3], 90%.

For the compound `Nc1c(C(=O)Nc2ccccc2Cl)sc2nc3c(cc12)CCCC3`, the growth at 1 µM is 119% in [1], 94% in assay [2] and 95% in assay [3]. Further, the values for the growth, % of control at 10 µM in assay [5] and in [7] were 91% and 107%, respectively. Further, the inhibition of growth at 10 µM in assay [8] is 100%.

For the compound `CC(=O)OC1CCCc2nc3sc4c(=O)n(-c5ccccc5Cl)nnc4c3cc21` (stereo not drawn), the growth at 1 µM is 95% in [1], 98% in [2] and 93% in assay [3].

For the compound `O=c1c2sc3nc4c(cc3c2nnn1-c1ccccc1Cl)CCCC4`, the growth at 1 µM in assay [1] amounted to 94%; in assay [2], 99%; in [3] it was 81%. Also, the growth, % of control at 10 µM in assay [5] and in [7] was 88% each time. Further, in [8], the inhibition of growth at 10 µM amounted to 81%.

Consider `Nc1c(C(=O)Nc2ccccc2Cl)sc2nc3c(cc12)C(=O)CCC3`, for which the growth at 1 µM in assay [1] was 104%; in assay [2], 99%; in [3], 94%. Further, the figures for the growth, % of control at 10 µM in [5] and in assay [7] were 25% and 76%, respectively. For the same compound, in assay [8], the inhibition of growth at 10 µM worked out at 70%.

For the compound `Cc1nc2sc3c(=O)n(-c4ccccc4Cl)nnc3c2cc1C(C)O` (stereo not drawn), the growth at 1 µM came out at 100% in assay [1], 100% in assay [2] and 118% in [3].

On to `Nc1c(C(=O)Nc2ccccc2Cl)sc2nc3c(cc12)CCCCCC3`, for which the growth at 1 µM in assay [1] was determined as 56%; in assay [2], 71%; in assay [3], 100%.

Consider `O=C1CCCc2nc3sc4c(=O)n(-c5ccccc5Cl)nnc4c3cc21`, for which the growth at 1 µM is 97% in assay [1], 97% in assay [2] and 91% in assay [3]. For the same compound, the growth, % of control at 10 µM in [5] amounted to 86%; in assay [7], 96%. Further, the inhibition of growth at 10 µM in [8] came to 94%.

In the case of `CC(=O)c1cc2c(N)c(C(=O)Nc3ccccc3Cl)sc2nc1C`, the growth at 1 µM amounted to 100% in [1], 87% in assay [2] and 104% in [3].

Regarding `O=c1c2sc3nc4c(cc3c2nnn1-c1ccccc1Cl)C(O)CCC4` (stereo not drawn), the growth at 1 µM amounted to 91% in [1], 96% in [2] and 80% in assay [3]. Moreover, the growth, % of control at 10 µM worked out at 91% in assay [5] and 102% in [7]. Also, the inhibition of growth at 10 µM in assay [8] was 86%.

Take `Cc1nc2sc(C(=O)Nc3ccccc3Cl)c(N)c2cc1C(C)O` (stereo not drawn): the growth at 1 µM in [1] worked out at 108%; in assay [2], 97%; in assay [3], 96%.
